Laboratory results from patent US12611406B2, “Oxopiperazine derivatives for the treatment of cancer” (Inthera Bioscience AG, priority 2020, dated 2026).

Tests used:
Assay type in all cases: in vivo
[1] = 14-day daily oral repeated-dose exploratory study in CD-1 mice (mesylate salt); conditions: for AUC(0-t) / Cmax: CD-1, mouse, in vivo, po
Procedure: This study explored the TK profile of Compound 1 after 14 days once daily oral dosing in male and female CD-1 mice.
Compound 1 (mesylate salt) was administered once daily for 14 consecutive days by oral gavage to groups of CD-1 mice (n=8/sex/group) at dose levels of 0 (control), 1, 5, 10 or 15 mg/kg/day. A suspension of 0.5% Methylcellulose (w/v) and 0.1% Polysorbate 80 (Tween 80) (v/v) was used as vehicle. For TK investigations sparse blood sampling was performed on treatment Days 1 and 14; three blood samples per animal and day were collected either pre-dose, 2 and 8 hours after administration (4 male and female animals per group) or 1, 4, and 24 hours (remaining 4 male and 4 female animals per group) after administration.

[2] = 28-day once weekly oral repeated-dose DRF study in CD-1 mice (mesylate salt), plasma; conditions: male; for Tmax / Cmax / AUC(0-t) / half-life: CD-1, mouse, plasma, po; for AUC(0-t): read-out: AUC0-8h
Procedure: This study explored the PK of Compound 1 after once weekly oral administration of 300 and 600 mg/kg/week for 4 consecutive weeks to male CD-1 mice.
Compound 1 (mesylate salt) was administered in 4 weekly doses by oral gavage to groups of male CD-1 mice (n=3/group) at dose levels of 300 and 600 mg/kg bodyweight per week. A suspension of 0.5% methylcellulose (w/v) in sterile water served as vehicle. Blood samples for PK analysis were collected after the second (Day 8) and fourth (Day 22) dosing at pre-dose, 0.25, 0.5, 1, 2, 4, 8, and 24 hours (the latter time point only after the 2nd dose) after administration.
Total plasma concentrations of Compound 1 were analyzed using a qualified LC-MS/MS method.

[3] = Single dose intravenous and oral PK in Beagle dogs (citrate salt); design: AUC(0-t) / AUC(0-inf): unit not given here; conditions: for AUC(0-inf) / AUC(0-t) / Tmax / half-life: both sexes, dog, whole blood
Procedure: This study determined the PK profile of Compound 1 following a single intravenous injection or oral gavage administration to Beagle dogs.
Compound 1 (citrate salt) was administered to two groups of dogs (n=1/sex/group) once by intravenous injection on Day 1, dose levels of 1 (Group 1) or 4 (Group 2) mg/kg/adm, and once by oral gavage on Day 3, dose levels of 3 (Group 1) and 12 (Group 2) mg/kg/adm, respectively. The vehicle was 5% dextrose in water for intravenous and aqueous citrate buffer solution for oral gavage administrations. Relative to each dosing on Days 1 and 3, series of blood samples were collected at pre-dose, 0.083, 0.25, 0.5, 1, 2, 4, and 7 hours for intravenous or at 0.25, 0.5, 1, 2, 4, 7, and 24 hours for oral gavage administration for analysis of Compound 1 concentrations in blood and subsequent calculation of PK parameters. Additional endpoints monitored during this study included mortality, clinical observations and body weight.

[4] = 300 mg/kg, 300 mg/kg/week, 2nd dose (Week 2)
[5] = 300 mg/kg, 300 mg/kg/week, 4th dose (Week 4)
[6] = 600 mg/kg, 600 mg/kg/week, 2nd dose (Week 2)
[7] = 600 mg/kg, 600 mg/kg/week, 4th dose (Week 4)

Question: With `CC(C)C[C@@H]1NCCN([C@@H](CC(C)C)C(=O)N2CCC3(C[C@@H]2C)OCC(CN2CCCC2)CO3)C1=O` (stereo partly drawn) [Compound 1, (S)-3-isobutyl-1-((S)-4-methyl-1-((S)-8-methyl-3-(pyrrolidin-1-ylmethyl)-1,5-dioxa-9-azaspiro[5.5]undecan-9-yl)-1-oxopentan-2-yl)piperazin-2-one] as the compound, how does the tolerability ([1]; 1, 5, 10, and 15 mg/kg/day orally once daily for 14 consecutive days) read?
Answer: well-tolerated

Question: And the AUC(0-t) ([1]; female, 1 mg/kg, F, Day 1)?
Answer: 33.1 ng·h/mL

Question: And the Cmax ([1]; female, 1 mg/kg, F, Day 1)?
Answer: 6.4 ng/mL

Question: What about the AUC(0-t) ([1]; female, 1 mg/kg, F, Day 14) of the same compound?
Answer: 112 ng·h/mL

Question: And the Cmax ([1]; female, 1 mg/kg, F, Day 14)?
Answer: 16.6 ng/mL

Question: And the AUC(0-t) ([1]; female, 5 mg/kg, F, Day 1)?
Answer: 258 ng·h/mL

Question: What about the Cmax ([1]; female, 5 mg/kg, F, Day 1) of the same compound?
Answer: 67.6 ng/mL

Question: What about the AUC(0-t) ([1]; female, 5 mg/kg, F, Day 14) of the same compound?
Answer: 478 ng·h/mL

Question: And the Cmax ([1]; female, 5 mg/kg, F, Day 14)?
Answer: 115 ng/mL

Question: And the AUC(0-t) ([1]; female, 10 mg/kg, F, Day 1)?
Answer: 304 ng·h/mL

Question: And the Cmax ([1]; female, 10 mg/kg, F, Day 1)?
Answer: 60.5 ng/mL

Question: And the AUC(0-t) ([1]; female, 10 mg/kg, F, Day 14)?
Answer: 690 ng·h/mL

Question: And the Cmax ([1]; female, 10 mg/kg, F, Day 14)?
Answer: 97.7 ng/mL

Question: What about the AUC(0-t) ([1]; female, 15 mg/kg, F, Day 1) of the same compound?
Answer: 711 ng·h/mL

Question: What about the Cmax ([1]; female, 15 mg/kg, F, Day 1) of the same compound?
Answer: 140 ng/mL

Question: And the AUC(0-t) ([1]; female, 15 mg/kg, F, Day 14)?
Answer: 1090 ng·h/mL

Question: And the Cmax ([1]; female, 15 mg/kg, F, Day 14)?
Answer: 151 ng/mL

Question: What about the AUC(0-t) ([1]; male, 1 mg/kg, M, Day 1) of the same compound?
Answer: 55.4 ng·h/mL

Question: What about the Cmax ([1]; male, 1 mg/kg, M, Day 1) of the same compound?
Answer: 10.9 ng/mL

Question: And the AUC(0-t) ([1]; male, 1 mg/kg, M, Day 14)?
Answer: 108 ng·h/mL

Question: What about the Cmax ([1]; male, 1 mg/kg, M, Day 14) of the same compound?
Answer: 16.3 ng/mL

Question: What about the AUC(0-t) ([1]; male, 5 mg/kg, M, Day 1) of the same compound?
Answer: 225 ng·h/mL

Question: What about the Cmax ([1]; male, 5 mg/kg, M, Day 1) of the same compound?
Answer: 42.9 ng/mL

Question: And the AUC(0-t) ([1]; male, 5 mg/kg, M, Day 14)?
Answer: 607 ng·h/mL

Question: What about the Cmax ([1]; male, 5 mg/kg, M, Day 14) of the same compound?
Answer: 90 ng/mL

Question: What about the AUC(0-t) ([1]; male, 10 mg/kg, M, Day 1) of the same compound?
Answer: 361 ng·h/mL

Question: What about the Cmax ([1]; male, 10 mg/kg, M, Day 1) of the same compound?
Answer: 64.8 ng/mL

Question: And the AUC(0-t) ([1]; male, 10 mg/kg, M, Day 14)?
Answer: 782 ng·h/mL

Question: What about the Cmax ([1]; male, 10 mg/kg, M, Day 14) of the same compound?
Answer: 105 ng/mL

Question: And the AUC(0-t) ([1]; male, 15 mg/kg, M, Day 1)?
Answer: 689 ng·h/mL

Question: What about the Cmax ([1]; male, 15 mg/kg, M, Day 1) of the same compound?
Answer: 133 ng/mL

Question: What about the AUC(0-t) ([1]; male, 15 mg/kg, M, Day 14) of the same compound?
Answer: 717 ng·h/mL

Question: And the Cmax ([1]; male, 15 mg/kg, M, Day 14)?
Answer: 102 ng/mL

Question: What about the Tmax ([2]; 300 mg/kg, 300 mg/kg/week, 2nd dose) of the same compound?
Answer: 1 h

Question: What about the Cmax [2, 4] of the same compound?
Answer: 8130 ng/mL

Question: What about the AUC(0-t) [2, 4] of the same compound?
Answer: 13600 ng·h/mL

Question: What about the Tmax ([2]; 300 mg/kg, 300 mg/kg/week, 4th dose) of the same compound?
Answer: 1.3 h

Question: And the Cmax [2, 5]?
Answer: 8370 ng/mL

Question: And the AUC(0-t) [2, 5]?
Answer: 38200 ng·h/mL

Question: And the Tmax ([2]; 600 mg/kg, 600 mg/kg/week, 2nd dose)?
Answer: 5.7 h

Question: And the Cmax [2, 6]?
Answer: 13400 ng/mL

Question: And the AUC(0-t) [2, 6]?
Answer: 47800 ng·h/mL

Question: What about the Tmax ([2]; 600 mg/kg, 600 mg/kg/week, 4th dose) of the same compound?
Answer: 0.5 h

Question: What about the Cmax [2, 7] of the same compound?
Answer: 28800 ng/mL

Question: And the AUC(0-t) [2, 7]?
Answer: 125000 ng·h/mL

Question: And the half-life ([2]; 300 mg/kg/week, 2nd dose)?
Answer: 4.1 h

Question: And the half-life ([2]; 600 mg/kg/week, 4th dose)?
Answer: 85.8 h

Question: And the tolerability ([2]; once weekly orally for 4 weeks at 300 and 600 mg/kg/week)?
Answer: well tolerated

Question: What about the Cl ([3]; IV 1 mg/kg) of the same compound?
Answer: 0.0057 (mg/kg)/(nmo/L)/h

Question: And the Vss ([3]; IV 1 mg/kg)?
Answer: 0.004 (mg/kg)/(nmo/L)

Question: What about the Cl ([3]; IV 4 mg/kg) of the same compound?
Answer: 0.0014 (mg/kg)/(nmo/L)/h

Question: And the Vss ([3]; IV 4 mg/kg)?
Answer: 0.004 (mg/kg)/(nmo/L)

Question: What about the tolerability ([3]; IV 1 and 4 mg/kg/adm or oral gavage 3 and 12 mg/kg/adm) of the same compound?
Answer: well tolerated

Question: And the AUC(0-inf) ([3]; Beagle, IV 1 mg/kg)?
Answer: 0.089

Question: And the AUC(0-t) ([3]; Beagle, IV 1 mg/kg)?
Answer: 0.063

Question: And the Tmax ([3]; Beagle, IV 1 mg/kg)?
Answer: 0.08 h

Question: And the half-life ([3]; Beagle, IV 1 mg/kg)?
Answer: 0.5 h

Question: What about the AUC(0-inf) ([3]; Beagle, po 12 mg/kg) of the same compound?
Answer: 2.39

Question: What about the AUC(0-t) ([3]; Beagle, po 12 mg/kg) of the same compound?
Answer: 1.91

Question: What about the Tmax ([3]; Beagle, po 12 mg/kg) of the same compound?
Answer: 0.25 h

Question: What about the half-life ([3]; Beagle, po 12 mg/kg) of the same compound?
Answer: 3.3 h

Question: And the AUC(0-inf) ([3]; beagle, IV 4 mg/kg)?
Answer: 1.45

Question: And the AUC(0-t) ([3]; beagle, IV 4 mg/kg)?
Answer: 1.29

Question: And the Tmax ([3]; beagle, IV 4 mg/kg)?
Answer: 0.08 h

Question: And the half-life ([3]; beagle, IV 4 mg/kg)?
Answer: 2.5 h

Question: And the AUC(0-inf) ([3]; beagle, po 3 mg/kg)?
Answer: 0.289

Question: What about the AUC(0-t) ([3]; beagle, po 3 mg/kg) of the same compound?
Answer: 0.182

Question: What about the Tmax ([3]; beagle, po 3 mg/kg) of the same compound?
Answer: 0.25 h

Question: And the half-life ([3]; beagle, po 3 mg/kg)?
Answer: 2.6 h

Question: What about the Cl ([3]; po 3 mg/kg) of the same compound?
Answer: 0.0052 (mg/kg)/(nmo/L)/h

Question: What about the Cl ([3]; po 12 mg/kg) of the same compound?
Answer: 0.0025 (mg/kg)/(nmo/L)/h
